Target: T1, IRAK4 (Homo sapiens, UniProt Q9NWZ3)
T1 construct: endogenous in cells; host or cells: OCI-LY10
T1 sequence (Q9NWZ3 1-460): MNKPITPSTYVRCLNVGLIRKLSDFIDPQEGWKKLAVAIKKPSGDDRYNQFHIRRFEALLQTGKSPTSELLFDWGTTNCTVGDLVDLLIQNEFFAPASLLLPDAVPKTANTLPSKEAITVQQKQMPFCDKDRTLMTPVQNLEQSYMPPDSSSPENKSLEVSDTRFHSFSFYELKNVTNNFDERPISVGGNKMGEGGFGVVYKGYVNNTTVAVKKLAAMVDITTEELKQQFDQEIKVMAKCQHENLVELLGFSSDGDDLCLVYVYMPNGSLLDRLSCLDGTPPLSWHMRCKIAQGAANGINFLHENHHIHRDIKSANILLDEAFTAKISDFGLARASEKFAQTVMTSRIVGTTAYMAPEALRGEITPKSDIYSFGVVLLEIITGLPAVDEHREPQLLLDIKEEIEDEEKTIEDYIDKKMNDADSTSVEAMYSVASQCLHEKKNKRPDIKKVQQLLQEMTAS
Assay: IRAK4 MSD Degradation in OCI-LY10
Type: cell-based
Details: OCI-LY10 cells, Meso Scale Discovery, incubated 4 to 24 hours
Summary of the method: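 IRAK4 degradation was quantified by Meso Scale electrochemiluminescence (anti-IRAK4 capture and detection antibodies) in lysates of treated OCI-LY10 cells. Compounds were dosed at 8 concentrations (1:3 dilutions, top 1 to 10 μM) for 4 to 24 h; DC50 derived by three-parameter logistic fitting.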

SMILES | DC50 [nM]
COc1cc2nn([C@H]3CC[C@H](CN4CCC(c5cc(C)cc6c5n(C)c(=O)n6C5CCC(=O)NC5=O)CC4)CC3)cc2cc1NC(=O)c1cccc(C(F)(F)F)n1 (stereo partly drawn) [I-35] | < 10
COc1cc2nn([C@H]3CC[C@H](CN(C)C4CCN(c5c(Cl)ccc6c5n(C)c(=O)n6C5CCC(=O)NC5=O)CC4)CC3)cc2cc1NC(=O)c1cccc(C(F)(F)F)n1 (stereo partly drawn) [I-53] | 10 to 50
CN(CCn1cc2cc(NC(=O)c3cnn4cccnc34)c(F)cc2n1)C1CCN(c2cccc3c2n(C)c(=O)n3C2CCC(=O)NC2=O)CC1 (stereo not drawn) [I-22, N-[2-[2-[[1-[1-(2,6-dioxo-3-piperidyl)-3-methyl-2-oxo-benzimidazol-4-yl]-4-piperidyl]-methyl-amino]ethyl]-6-fluoro-indazol-5-yl]pyrazolo[1,5-a] pyrimidine-3-carboxamide] | > 200
CCc1cc2nn([C@H]3CC[C@H](CN4CCN(c5cccc6c(N7CCC(=O)NC7=O)cncc56)CC4)CC3)cc2cc1NC(=O)c1cccc(C(F)(F)F)n1 [I-377] | < 10
COc1cc2nn([C@H]3C[C@H](CN4CCC(c5cccc6c(N7CCC(=O)NC7=O)cncc56)CC4)C3)cc2cc1NC(=O)c1cccc(C(F)(F)F)n1 [I-91] | 10 to 50
CC(C)Nc1cc(-n2ccc3cc(C#N)cnc32)ncc1C(=O)N[C@H]1CC[C@H](CN2CCC(c3cccc4c(N5CCC(=O)NC5=O)cncc34)CC2)CC1 [I-190] | < 10
CC(C)(O)c1cc2nc([C@H]3CC[C@H](C(=O)N4CCN(CCCNc5cccc6c5C(=O)N(C5CCC(=O)NC5=O)C6=O)CC4)CC3)sc2cc1NC(=O)c1cncc(C#N)c1 (stereo partly drawn) [I-451] | 50 to 100
Cn1c(=O)n(C2CCC(=O)NC2=O)c2cccc(N3CCN(C[C@H]4CC[C@H](n5cc6cc(NC(=O)c7cccc(C(F)(F)F)n7)c(N7CCC7)cc6n5)CC4)CC3)c21 (stereo partly drawn) [I-387] | 10 to 50
COc1cc2nn([C@H]3C[C@H](CN4CCC(c5ccc6c(N7CCC(=O)NC7=O)cncc6c5)CC4)C3)cc2cc1NC(=O)c1cccc(C(F)(F)F)n1 [I-119] | > 200
CC(C)(O)c1cc2nc([C@H]3CC[C@H](C(=O)N4CCN(CCNc5cccc6c5C(=O)N(C5CCC(=O)NC5=O)C6=O)CC4)CC3)sc2cc1NC(=O)c1cncc(C#N)c1 (stereo partly drawn) [I-431] | > 200
COc1cc2nn([C@H]3CC[C@H](CN4CCN(c5cccc6c(N7CCC(=O)NC7=O)cncc56)CC4)CC3)cc2cc1NC(=O)c1cncc(C(F)(F)F)n1 [I-299] | < 10
CCn1c(=O)n(C2CCC(=O)NC2=O)c2cccc(N3CCN(C[C@H]4CC[C@H](n5cc6cc(NC(=O)c7cccc(C(F)(F)F)n7)c(OC)cc6n5)CC4)CC3)c21 (stereo partly drawn) [I-253] | < 10
Cn1c(=O)n(C2CCC(=O)NC2=O)c2ccc(F)c(C3CCN(C[C@H]4C[C@H](n5cc6cc(NC(=O)c7cccc(C(F)(F)F)n7)c(Cl)cc6n5)C4)CC3)c21 (stereo partly drawn) [I-142] | 10 to 50
COc1cc2nn([C@H]3C[C@H](CN4CCC(c5c(F)ccc6c5n(C)c(=O)n6C5CCC(=O)NC5=O)CC4)C3)cc2cc1NC(=O)c1cccc(C(F)(F)F)n1 (stereo partly drawn) [I-141] | 10 to 50
COc1ccc2c(c1C1CCN(C[C@H]3C[C@H](n4cc5cc(NC(=O)c6cccc(C(F)(F)F)n6)ccc5n4)C3)CC1)n(C)c(=O)n2C1CCC(=O)NC1=O (stereo partly drawn) [I-152] | 10 to 50
CC(=O)c1cc2nn([C@H]3CC[C@H](CN4CCN(c5cccc6c5n(C)c(=O)n6C5CCC(=O)NC5=O)CC4)CC3)cc2cc1NC(=O)c1cccc(C(F)(F)F)n1 (stereo partly drawn) [I-412] | < 10
Cc1cc2nn([C@H]3CC[C@H](CN4CCC(c5cccc6c5n(C)c(=O)n6C5CCC(=O)NC5=O)CC4)CC3)cc2cc1NC(=O)c1cccc(C(F)(F)F)n1 (stereo partly drawn) [I-70] | < 10
CN(C[C@H]1CC[C@H](n2cc3cc(NC(=O)c4cccc(C(F)(F)F)n4)ncc3n2)CC1)C1CCN(c2cccc3c2n(C)c(=O)n3C2CCC(=O)NC2=O)CC1 (stereo partly drawn) [I-238] | < 10
Cn1c(=O)n(C2CCC(=O)NC2=O)c2cccc(C3CCN(C[C@H]4CC[C@H](N5Cc6cc(NC(=O)c7cccc(C(F)(F)F)n7)c(N7C[C@H]8C[C@@H]7CO8)cc6C5=O)CC4)CC3)c21 (stereo partly drawn) [I-29] | < 10
CN(CCCN(C)[C@H]1C[C@H](Nc2cccc3c2C(=O)N(C2CCC(=O)NC2=O)C3=O)C1)C[C@H]1CC[C@H](n2cc3cc(NC(=O)c4cccc(C(F)(F)F)n4)c(C(C)(C)O)cc3n2)CC1 (stereo partly drawn) [I-263] | 10 to 50
O=C1CCN(c2cncc3c(C4CCN(C[C@H]5CC[C@H](n6cc7cc(NC(=O)c8cccc(C(F)(F)F)n8)c(C(F)F)cc7n6)CC5)CC4)cccc23)C(=O)N1 [I-293] | < 10
CC(C)Nc1cc(-c2ccc3cc(C#N)cnn23)ncc1C(=O)N[C@H]1CC[C@H](CN2CCC(c3cccc4c3n(C)c(=O)n4C3CCC(=O)NC3=O)CC2)CC1 (stereo partly drawn) [I-183] | < 10
O=C1CCN(c2cncc3cc(C4CCN(C[C@H]5CC[C@H](n6cc7cc(NC(=O)c8cccc(C(F)(F)F)n8)ccc7n6)CC5)CC4)ccc23)C(=O)N1 [I-321] | > 200
COc1ccc2c(c1C1CCN(C[C@H]3CC[C@H](n4cc5cc(NC(=O)c6cccc(C(F)(F)F)n6)ncc5n4)CC3)CC1)n(C)c(=O)n2C1CCC(=O)NC1=O (stereo partly drawn) [I-104, N-[2-[4-[[4-[1-[(3S)-2,6-dioxo-3-piperidyl]-5-methoxy-3-methyl-2-oxo-benzimidazol-4-yl]-1-piperidyl]methyl]cyclohexyl]pyrazolo[3,4-c]pyridin-5-yl]-6-(trifluoromethyl)pyridine-2-carboxamide] | < 10
CC(C)Nc1cc(-n2ccc3cc(C#N)cnc32)ncc1C(=O)N[C@H]1CC[C@H](CN2CCN(c3cccc4c3n(C)c(=O)n4C3CCC(=O)NC3=O)CC2)CC1 (stereo partly drawn) [I-361] | < 10

More lines, now with the values ahead:

DC50 [nM] | SMILES
> 200 | Cn1c(=O)n(C2CCC(=O)NC2=O)c2cccc(C3CCN(C[C@H]4CC[C@H](n5cc6cc(NC(=O)c7cncc(C#N)c7)c(OC(F)(F)F)cc6n5)CC4)CC3)c21 (stereo partly drawn) [I-325]
50 to 100 | COc1cc2nc([C@H]3C[C@H](CN4CCC(c5cccc6c5n(C)c(=O)n6C5CCC(=O)NC5=O)CC4)C3)sc2cc1NC(=O)c1cccc(C(F)(F)F)n1 (stereo partly drawn) [I-235]
10 to 50 | COc1cc2nn([C@H]3CC[C@H](CN4CCN(c5cccc6c5n(C)c(=O)n6C5CCC(=O)NC5=O)C[C@@H]4C)CC3)cc2cc1NC(=O)c1cccc(C(F)(F)F)n1 (stereo partly drawn) [I-246]
> 200 | COc1cc2nc([C@H]3CC[C@H](CN(C)CCCCNc4cccc5c4C(=O)N(C4CCC(=O)NC4=O)C5=O)CC3)sc2cc1NC(=O)c1cncc(F)c1 (stereo partly drawn) [I-479]
> 200 | O=C1CCN(c2cncc3cc(N4CCN(C[C@H]5CC[C@H](n6cc7cc(NC(=O)c8cccc(C(F)(F)F)n8)ccc7n6)CC5)CC4)ccc23)C(=O)N1 [I-161]
10 to 50 | COc1cc2nn([C@H]3CC[C@H](CN4CCC(O[C@H]5C[C@H](c6cccc7c6n(C)c(=O)n7C6CCC(=O)NC6=O)C5)CC4)CC3)cc2cc1NC(=O)c1cccc(C(F)(F)F)n1 (stereo partly drawn) [I-386]
> 200 | Cc1c(C2CCN(C[C@H]3CC[C@H](n4cc5cc(NC(=O)c6cccc(C(F)(F)F)n6)ncc5n4)CC3)CC2)ccc2c1n(C)c(=O)n2C1CCC(=O)NC1=O (stereo partly drawn) [I-210]
100 to 200 | Cc1cccc(C(=O)Nc2cc3sc([C@H]4CC[C@H](CN5C[C@@H]6C[C@H]5CN6CCNc5cccc6c5C(=O)N(C5CCC(=O)NC5=O)C6=O)CC4)nc3cc2C(C)(C)O)n1 (stereo partly drawn) [I-473]
10 to 50 | O=C1CCC(N2C(=O)c3cccc(NCCC4CC5(C4)CN(C[C@H]4CC[C@H](c6nc7cc(C(=O)O)c(NC(=O)c8cccc(C(F)(F)F)n8)cc7s6)CC4)C5)c3C2=O)C(=O)N1 (stereo partly drawn) [I-485]
> 200 | COc1cc2nn([C@H]3CC[C@H](CN4C[C@H]5C[C@@H]4CN5c4cccc5c4n(C)c(=O)n5C4CCC(=O)NC4=O)CC3)cc2cc1NC(=O)c1cncc(C#N)c1 (stereo partly drawn) [I-166]
< 10 | CC(C)(O)c1cc2nn([C@H]3CC[C@H](CN4CCC(c5cccc6c(N7CCC(=O)NC7=O)cncc56)CC4)CC3)cc2cc1NC(=O)c1cccc(C(F)(F)F)n1 [I-78, N-[2-[4-[[4-[4-(2,4-dioxohexahydropyrimidin-1-yl)-8-isoquinolyl]-1-piperidyl]methyl]cyclohexyl]-6-(1-hydroxy-1-methyl-ethyl)indazol-5-yl]-6-(trifluoromethyl)pyridine-2-carboxamide]
> 200 | CC(C)Nc1cc(-n2ccc3cc(C#N)cnc32)ncc1C(=O)N1CCC(CN(C)C2CCN(c3cccc4c3n(C)c(=O)n4C3CCC(=O)NC3=O)CC2)CC1 (stereo not drawn) [I-115]
10 to 50 | Cc1ccc2c(c1C1CCN(C[C@H]3CC[C@H](n4cc5cc(NC(=O)c6cccc(C(F)(F)F)n6)c(Cl)cc5n4)CC3)CC1)n(C)c(=O)n2C1CCC(=O)NC1=O (stereo partly drawn) [I-73]
> 200 | Cn1c(=O)n(C2CCC(=O)NC2=O)c2cccc(C3CCN(C(=O)[C@H]4CC[C@H](n5cc6cc(NC(=O)c7cccc(C(F)(F)F)n7)ncc6n5)CC4)CC3)c21 (stereo partly drawn) [I-188]
100 to 200 | Cc1cccc(C(=O)Nc2cc3sc([C@H]4CC[C@H](CN5C[C@H]6C[C@@H]5CN6CCCNc5cccc6c5C(=O)N(C5CCC(=O)NC5=O)C6=O)CC4)nc3cc2C(C)(C)O)n1 (stereo partly drawn) [I-432]
< 10 | Cc1cccc(C(=O)Nc2cc3sc([C@H]4CC[C@H](C(=O)N5CCN(CCCNc6cccc7c6C(=O)N(C6CCC(=O)NC6=O)C7=O)CC5)CC4)nc3cc2C(C)(C)O)n1 (stereo partly drawn) [I-465]
> 200 | COc1cc2nc([C@H]3CC[C@H](CN(C)CCCCNc4cccc5c4C(=O)N(C4CCC(=O)NC4=O)C5=O)CC3)sc2cc1NC(=O)c1cncc(C)c1 (stereo partly drawn) [I-460]
